Results reported in publication PMC9855133, “Ligand Binding Properties of Odorant-Binding Protein OBP5 from Mus musculus” (Biology, 2022).
One block for each molecule: values may come before it.

Legend:
[1] = biological target: T1, mOBP5 (Mus musculus, UniProt Q9D3H2); experiment: Competitive fluorescence binding assay (displacement of NPN from mOBP5); conditions: for IC50 / Kd: 2 μM mOBP5, 10 μM NPN; for IC50: 20 °C, for very weak ligands an arbitrary value of 200 μM was assigned, read-out: IC50 (µM) Fluo: concentration of competitor ligand causing a decrease of NPN fluorescence of half-maximal intensity; for Kd: calculated as Kd = [IC50]/(1 + [L]/Kd NPN), average of three experiments, read-out: Kd (µM) Fluo: dissociation constant determined by fluorescence; for fluorescence intensity of the mOBP5-NPN complex in the presence of odorant: competitive curves, Figure 3C
T1 construct: composed of an N-terminal His6-tag, followed by mOBP5 (Ala17-Glu163); made in house; host or cells: E. coli M15 [pREP4]
T1 sequence (Q9D3H2 17-163): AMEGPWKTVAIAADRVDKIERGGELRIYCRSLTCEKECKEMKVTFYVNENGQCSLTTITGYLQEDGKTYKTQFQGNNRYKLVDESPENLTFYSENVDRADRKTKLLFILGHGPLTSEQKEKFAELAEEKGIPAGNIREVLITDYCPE
Experimental: (§1) Competitive ligand binding experiments were performed using N-phenyl-1-naphthylamine (NPN) as a fluorescent probe as previously described. All measurements were conducted at 20 °C using a Cary Eclipse spectrofluorimeter (Agilent Technologies, Santa Clara, CA, United States) equipped with a Peltier temperature-control unit with a 1 cm light path, quartz cuvette, and 5 nm slits for both excitation and emission. […] The excitation wavelength of NPN was 337 nm, and the fluorescence emission was recorded between 350 and 600 nm. The value of the dissociation constant (Kd) NPN was calculated using SigmaPlot 12.5 software (Systat Software, Inc., San Jose, CA, USA), as previously described.
Competitive binding assays were carried out with 2 μM mOBP5 incubated with 10 μM NPN, as previously described. After the addition of the competitor compound and the stabilization of the signal (3–4 min), the fluorescence spectrum was recorded. The IC50 value is the concentration of odorant, which causes a fluorescence decrease in half-maximal intensity. The IC50 values were calculated using SigmaPlot software. Dissociation constants (Kd) for odorant competitors were calculated as Kd = [IC50]/(1 + [L]/Kd NPN), with [L] being the free fluorophore concentration and Kd being the OBP-fluorophore complex dissociation constant. The reported Kd values are the average of three measurements performed in three independent experiments.

[2] = biological target: T1, mOBP5; experiment: Fluorescence titration of mOBP5 with the probe NPN; assay type: binding; conditions: 2 µM mOBP5, 50 mM sodium phosphate pH 7.5, 20 °C, excitation 337 nm; read-out: dissociation constant (Kd) of NPN
Experimental: as §1

[3] = biological target: T1, mOBP5; experiment: Isothermal titration microcalorimetry (ITC); assay type: binding; conditions: 25 °C, 25 μM mOBP5, 250 μM odorant, phosphate buffer pH 7.5; for Ka (ITC): association constant determined by ITC: in M-1 (unit assumed); for Kd: read-out: Kd (µM) ITC: dissociation constant determined by ITC (1/Ka)
Experimental: Isothermal titration microcalorimetry (ITC) experiments were carried out at 25 °C with a VP-ITC microcalorimeter (Malvern Panalytical, Palaiseau, France) as previously described. Before initiating the titration run, mOBP5 solutions (25 μM in 50 mM phosphate buffer, pH 7.5) were thoroughly degassed under vacuum. Ligand solutions (250 μM in 50 mM phosphate buffer, pH 7.5) were injected into one 3 µL aliquot, then 26 successive 10 μL aliquots. The duration of each injection was 20 s with a 210 s recovery time between injections. Heats of dilution determined in the absence of mOBP5 were subtracted from the titration data prior to curve fitting. Thermodynamic parameters were obtained by fitting the values to a single site binding model through nonlinear regression using Microcal Origin® software.

[4] = biological target: the molecule itself; experiment: SEC; calibrated Superdex 75 10/300 GL, room temperature, 100 mM potassium phosphate, 150 mM NaCl, pH 7.5, 1 mL/min; purified mOBP5 at 0.5 mg/mL

IC50 [1]: 40 µM
Molecule: CC12CCC(CC1)C(C)(C)O2 [cineole]

Kd [2]: 3330 ± 170 nM
Molecule: c1ccc(Nc2cccc3ccccc23)cc1 [NPN, N-phenyl-1-naphthylamine]

Molecule: COc1ccc(C=O)cc1 [4-methoxy-benzaldehyde]
IC50 [1]: 40 µM

IC50 [1]: 1.1 µM
Kd [1]: 0.28 µM
fluorescence intensity of the mOBP5-NPN complex in the presence of odorant [1]: drastically reduced
Molecule: C=C(C)C1CC=C(C)C(=O)C1 (single isomer, unassigned; (-)) [(-)-carvone]

N ITC: binding stoichiometry per monomer determined by ITC [3]: 0.71
Ka (ITC): association constant determined by ITC [3]: 3.6E+07
Kd [3]: 0.028 µM
IC50 [1]: 1.1 µM
Kd [1]: 0.29 µM
fluorescence intensity of the mOBP5-NPN complex in the presence of odorant [1]: drastically reduced
Molecule: CCCCCCCCO [1-octanol]

IC50 [1]: 40 µM
Molecule: Cc1ccc(C(C)C)c(O)c1 [thymol]

IC50 [1]: 1.5 µM
Kd [1]: 0.38 µM
fluorescence intensity of the mOBP5-NPN complex in the presence of odorant [1]: drastically reduced
Molecule: CC1CCC(C(C)C)C(O)C1 (stereo not drawn) [menthol]

IC50 [1]: 40 µM
Molecule: CCCC(=O)OCC [ethyl butyrate]

IC50 [1]: 10.4 µM
Kd [1]: 1.6 µM
Molecule: CC12CCC(CC1=O)C2(C)C (stereo not drawn) [camphor]

IC50 [1]: 2.4 µM
Kd [1]: 0.58 µM
Molecule: CCCCCCC1CCC(=O)O1 (stereo not drawn) [γ-decalactone]

N ITC: binding stoichiometry per monomer determined by ITC [3]: 0.58
Ka (ITC): association constant determined by ITC [3]: 1.8E+07
Kd [3]: 0.055 µM
IC50 [1]: 0.8 µM
Kd [1]: 0.23 µM
fluorescence intensity of the mOBP5-NPN complex in the presence of odorant [1]: drastically reduced
Molecule: CC(C)[C@@H]1CC[C@@H](C)CC1=O [menthone]

IC50 [1]: 2.4 µM
Kd [1]: 0.59 µM
Molecule: CCCCCCCO [1-heptanol]

IC50 [1]: 1.1 µM
Kd [1]: 0.3 µM
fluorescence intensity of the mOBP5-NPN complex in the presence of odorant [1]: drastically reduced
Molecule: C=CC(C)(O)CCC=C(C)C (stereo not drawn) [linalool]

N ITC: binding stoichiometry per monomer determined by ITC [3]: 0.87
Ka (ITC): association constant determined by ITC [3]: 8.6E+06
Kd [3]: 0.116 µM
IC50 [1]: 2.5 µM
Kd [1]: 0.6 µM
Molecule: CC(=O)OCCC(C)C [isoamyl acetate]

IC50 [1]: 0.9 µM
Kd [1]: 0.24 µM
fluorescence intensity of the mOBP5-NPN complex in the presence of odorant [1]: drastically reduced
Molecule: CC1=CCC2CC1C2(C)C (stereo not drawn) [α-pinene]

IC50 [1]: 40 µM
Molecule: CCCCCCO [1-hexanol]

IC50 [1]: 1.3 µM
Kd [1]: 0.34 µM
fluorescence intensity of the mOBP5-NPN complex in the presence of odorant [1]: drastically reduced
Molecule: CCCCCCCC=O [octanal]

IC50 [1]: 3 µM
Kd [1]: 0.71 µM
Molecule: CC(=O)/C=C/C1=C(C)CCCC1(C)C [β-ionone]

Molecule: CC(C=O)Cc1ccc(C(C)(C)C)cc1 (stereo not drawn) [lilialdehyde]
IC50 [1]: 1.4 µM
Kd [1]: 0.38 µM
fluorescence intensity of the mOBP5-NPN complex in the presence of odorant [1]: drastically reduced

N ITC: binding stoichiometry per monomer determined by ITC [3]: 0.71
Ka (ITC): association constant determined by ITC [3]: 2.5E+07
Kd [3]: 0.04 µM
IC50 [1]: 0.7 µM
Kd [1]: 0.19 µM
fluorescence intensity of the mOBP5-NPN complex in the presence of odorant [1]: drastically reduced
Molecule: CC(C)=CCC/C(C)=C/CO [geraniol]

N ITC: binding stoichiometry per monomer determined by ITC [3]: 0.47
Ka (ITC): association constant determined by ITC [3]: 8.7E+06
Kd [3]: 0.115 µM
IC50 [1]: 1 µM
Kd [1]: 0.28 µM
fluorescence intensity of the mOBP5-NPN complex in the presence of odorant [1]: drastically reduced
Molecule: C=C(C)[C@H]1CC=C(C)C(=O)C1 [(+)-carvone]

IC50 [1]: 7.2 µM
Kd [1]: 1.3 µM
Molecule: COc1nccnc1CC(C)C [3-iso-butyl-2-methoxy-pyrazine]

IC50 [1]: 1.2 µM
Kd [1]: 0.31 µM
fluorescence intensity of the mOBP5-NPN complex in the presence of odorant [1]: drastically reduced
Molecule: CCCCCCCCC(C)=O [2-decanone]

Molecule: CC(C)=CCCC(C)=CC=O (mixture of isomers) [citral]
N ITC: binding stoichiometry per monomer determined by ITC [3]: 0.65
Ka (ITC): association constant determined by ITC [3]: 1.3E+07
Kd [3]: 0.076 µM
IC50 [1]: 2.5 µM
Kd [1]: 0.61 µM

B1: Mus musculus odorant-binding protein OBP5 (mOBP5), recombinant His6-tagged (natural protein, UniProt Q9D3H2 17-163, looked up)
chain: T1 sequence (Q9D3H2 17-163)
notes: Expressed from pQE31 (BamHI/HindIII); also called mOBP1a; source: E. coli M15 [pREP4], purified (HisTrap Ni2+-chelating column, dialysis); not shown: His6, N-terminal, kept
stoichiometry N [4]: 2
